Experimental data published in US12331046B2, “CTPS1 inhibitors and uses thereof” (Nimbus Clotho, Inc., priority 2020, dated 2025).

What follows are compounds tested against human CTPS1 (Homo sapiens (Human), UniProt P17812) (assay: hCTPS1 biochemical assay (ADP-Glo)). Details: hCTPS1 25 nM, ATP 120 uM, UTP 160 uM, GTP 60 uM, L-Glutamine 100 uM, 25 degrees C.
Sequence of human CTPS1 (P17812 whole entry): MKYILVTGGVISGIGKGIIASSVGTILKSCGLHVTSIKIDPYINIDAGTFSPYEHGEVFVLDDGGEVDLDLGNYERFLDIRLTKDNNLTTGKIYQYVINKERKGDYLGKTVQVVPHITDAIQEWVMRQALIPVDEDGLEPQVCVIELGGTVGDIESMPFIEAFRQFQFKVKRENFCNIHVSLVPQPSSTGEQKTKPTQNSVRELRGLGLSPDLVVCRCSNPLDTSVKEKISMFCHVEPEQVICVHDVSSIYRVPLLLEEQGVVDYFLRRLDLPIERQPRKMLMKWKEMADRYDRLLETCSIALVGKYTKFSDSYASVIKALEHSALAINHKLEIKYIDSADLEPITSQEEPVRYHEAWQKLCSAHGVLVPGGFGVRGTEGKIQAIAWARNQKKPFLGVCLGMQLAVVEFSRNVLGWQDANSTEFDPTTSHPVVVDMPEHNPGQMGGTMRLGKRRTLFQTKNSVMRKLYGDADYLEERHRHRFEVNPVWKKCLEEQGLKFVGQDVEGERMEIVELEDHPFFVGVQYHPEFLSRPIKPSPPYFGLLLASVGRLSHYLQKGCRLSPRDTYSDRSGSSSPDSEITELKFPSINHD

Compound | IC50
CCOc1cncc(-c2ccc(C(=O)NCc3cccc(NS(=O)(=O)C(F)(F)F)c3)nc2)n1 [I-53, 5-(6-ethoxypyrazin-2-yl)-N-[[3-(trifluoromethanesulfonamido)phenyl]methyl] pyridine-2-carboxamide] | < 100 nM
Cc1c(-c2ccc(C(=O)NC3(c4csc(NS(=O)(=O)C5CC5)n4)CC3)cc2)cnn1C [I-261, N-[1-(2-cyclopropanesulfonamido-1,3-thiazol-4-yl)cyclopropyl]-4-(1,5-dimethylpyrazol-4-yl)benzamide] | ≥ 1000 nM
CCOc1cncc(-c2cnc(C(=O)N3CCNCC3c3ccnc(NS(=O)(=O)C4CC4)n3)s2)n1 (stereo not drawn) [I-181, N-(4-{1-[5-(6-ethoxypyrazin-2-yl)-1,3-thiazole-2-carbonyl]piperazin-2-yl}pyrimidin-2-yl)cyclopropanesulfonamide] | 100 to 1000 nM
CCOc1cncc(-c2cnc(C(=O)N[C@@H](CN3CCC(N(C)C)CC3)c3cc(NS(=O)(=O)C4CC4)ccn3)s2)n1 (single isomer, unassigned) [I-104] | < 100 nM
CCOc1cncc(-c2cnc(C(=O)NC(CCN3CC[C@H](F)C3)c3cc(NS(=O)(=O)C4CC4)ccn3)s2)n1 (stereo partly drawn) [I-130, N-(1-(4-(cyclopropanesulfonamido)pyridin-2-yl)-3-((S)-3-fluoropyrrolidin-1-yl)propyl)-5-(6-ethoxypyrazin-2-yl)thiazole-2-carboxamide] | < 100 nM
CCOc1cncc(-c2cnc(C(=O)N[C@H](C)c3cccc(NS(=O)(=O)C(F)F)c3)s2)n1 [I-272, N-[(1R)-1-[3-(difluoromethanesulfonamido)phenyl]ethyl]-5-(6-ethoxypyrazin-2-yl)-1,3-thiazole-2-carboxamide] | < 100 nM
CCOc1cncc(-c2cnc(C(=O)N[C@@H](CN3CCN(C(C)C)CC3)c3cc(NS(=O)(=O)C4CC4)ccn3)s2)n1 (single isomer, unassigned) [I-118] | < 100 nM
CCOc1cncc(-c2cnc(C(=O)N[C@H](c3cc(NS(=O)(=O)C4CC4)ccn3)C3CCN(C)CC3)s2)n1 [I-148, (S)—N-((4-(cyclopropanesulfonamido)pyridin-2-yl)(1-methylpiperidin-4-yl)methyl)-5-(6-ethoxypyrazin-2-yl)thiazole-2-carboxamide] | < 100 nM
CCOc1cncc(-c2cnc(C(=O)N[C@H](CN3CC(F)C3)c3cc(NS(=O)(=O)C4CC4)ccn3)s2)n1 (single isomer, unassigned) [I-204] | < 100 nM
CCOc1cncc(-c2ccc(C(=O)NCc3cc(NS(=O)(=O)C4CC4)ccn3)cc2)n1 [I-15, N-((4-(cyclopropanesulfonamido)pyridin-2-yl)methyl)-4-(6-ethoxypyrazin-2-yl) benzamide] | < 100 nM
CCOc1cncc(-c2cnc(C(=O)N[C@@H](CN3CC(F)C3)c3cc(NS(=O)(=O)C4CC4)ccn3)s2)n1 (single isomer, unassigned) [I-203] | < 100 nM
CCOc1cncc(-c2cnc(C(=O)N[C@@](C)(CCOC)c3cc(NS(=O)(=O)C4CC4)ccn3)s2)n1 [I-163, (S)—N-(2-(4-(cyclopropanesulfonamido)pyridin-2-yl)-4-methoxybutan-2-yl)-5-(6-ethoxypyrazin-2-yl)thiazole-2-carboxamide] | < 100 nM
CCOc1cncc(-c2cnc(C(=O)NCc3cc(NS(=O)(=O)C4CC4)ccn3)s2)n1 [I-50] | < 100 nM
CCOc1cncc(-c2cnc(C(=O)N3CCC[C@@H]3c3ccnc(NS(=O)(=O)C4CC4)n3)s2)n1 [I-270, N-[4-[(2R)-1-[5-(6-ethoxypyrazin-2-yl)-1,3-thiazole-2-carbonyl]pyrrolidin-2-yl]pyrimidin-2-yl]cyclopropanesulfonamide] | 100 to 1000 nM
CCOc1cncc(-c2cnc(C(=O)N[C@@H](C)c3cccc(NS(=O)(=O)C(F)F)c3)s2)n1 [I-273, N-[(1S)-1-[3-(difluoromethanesulfonamido)phenyl]ethyl]-5-(6-ethoxypyrazin-2-yl)-1,3-thiazole-2-carboxamide] | < 100 nM
C[C@@H]1Cc2nc(C(=O)NCc3cc(NS(=O)(=O)C4CC4)ccn3)cnc2N(C2CCC2)C1 [I-264, (R)-5-cyclobutyl-N-((4-(cyclopropanesulfonamido)pyridin-2-yl)methyl)-7-methyl-5,6,7,8-tetrahydropyrido[2,3-b]pyrazine-2-carboxamide] | ≥ 1000 nM
CCOc1cncc(-c2cnc(C(=O)N[C@@H](CN3CCOCC3)c3cc(NS(=O)(=O)C4CC4)ccn3)s2)n1 (single isomer, unassigned) [I-235] | < 100 nM
CCOc1cncc(-c2cnc(C(=O)N[C@@H](CN3C[C@@H]4C[C@H]3CO4)c3cc(NS(=O)(=O)C4CC4)ccn3)s2)n1 (single isomer, unassigned) [I-102] | < 100 nM
O=C(c1ncc(-c2cnc3[nH]cc(CC(F)F)c3n2)s1)N1CCCC1c1ccnc(NS(=O)(=O)C2CC2)n1 (stereo not drawn) [I-137, N-[4-(1-{5-[7-(2,2-difluoroethyl)-5H-pyrrolo[2,3-b]pyrazin-2-yl]-1,3-thiazole-2-carbonyl}pyrrolidin-2-yl)pyrimidin-2-yl] cyclopropanesulfonamide] | < 100 nM
CCOc1cncc(-c2cnc(C(=O)NC(CCN3CCOCC3)c3cc(NS(=O)(=O)C4CC4)ccn3)s2)n1 (stereo not drawn) [I-179, N-(1-(4-(cyclopropanesulfonamido)pyridin-2-yl)-3-morpholinopropyl)-5-(6-ethoxypyrazin-2-yl)thiazole-2-carboxamide] | < 100 nM

Compound | IC50
CCOc1cncc(-c2cnc(C(=O)N[C@@H](CCN3CCCC3)c3cc(NS(=O)(=O)C4CC4)ccn3)s2)n1 [I-159, (S)—N-(1-(4-(cyclopropanesulfonamido)pyridin-2-yl)-3-(pyrrolidin-1-yl)propyl)-5-(6-ethoxypyrazin-2-yl)thiazole-2-carboxamide] | < 100 nM
CCOc1cncc(-c2cnc(C(=O)N[C@@H](CN3[C@@H]4COC[C@H]3C4)c3cc(NS(=O)(=O)C4CC4)ccn3)s2)n1 [I-114] | < 100 nM
CCOc1cncc(-c2ccc(C(=O)N3CCC[C@@H]3c3cc(NS(=O)(=O)C4CC4)ccn3)c(F)c2)n1 [I-75, N-[2-[(2R)-1-[4-(6-ethoxypyrazin-2-yl)-2-fluorobenzoyl]pyrrolidin-2-yl]pyridin-4-yl]cyclopropanesulfonamide] | 100 to 1000 nM
CCOc1cncc(-c2cnc(C(=O)N[C@H](CN3[C@@H]4COC[C@H]3C4)c3cc(NS(=O)(=O)C4CC4)ccn3)s2)n1 [I-115] | < 100 nM
Cc1nc(C(=O)NCc2cc(NS(=O)(=O)C3CC3)ccn2)cnc1N1CCC12CCCCC2 [I-279] | < 100 nM
CCOc1cncc(-c2cnc(C(=O)N3CCCC3c3cncc(NS(=O)(=O)C4CC4)c3)s2)n1 (stereo not drawn) [I-232, N-(5-(1-(5-(6-ethoxypyrazin-2-yl)thiazole-2-carbonyl)pyrrolidin-2-yl)pyridin-3-yl)cyclopropanesulfonamide] | < 100 nM
CCOc1cncc(-c2cnc(C(=O)N[C@H](CCN(C)C)c3cccc(NS(=O)(=O)C4CC4)c3)s2)n1 (single isomer, unassigned) [I-143] | ≥ 1000 nM
O=C(NC1(c2csc(NS(=O)(=O)C3CC3)n2)CC1)c1ccc2ccccc2n1 [I-2, N-(1-(2-(cyclopropanesulfonamido)thiazol-4-yl)cyclopropyl)quinoline-2-carboxamide] | ≥ 1000 nM
Cc1cn(-c2ccc(C(=O)NC3(c4csc(NS(=O)(=O)C5CC5)n4)CC3)nc2)cn1 [I-8, N-(1-(2-(cyclopropanesulfonamido)thiazol-4-yl)cyclopropyl)-5-(4-methyl-1H-imidazol-1-yl)picolinamide] | ≥ 1000 nM
CCOc1cncc(-c2sc(C(=O)N[C@@H](CC)c3cc(NS(=O)(=O)C4CC4)ccn3)nc2C)n1 [I-219, (S)—N-(1-(4-(cyclopropanesulfonamido)pyridin-2-yl)propyl)-5-(6-ethoxypyrazin-2-yl)-4-methylthiazole-2-carboxamide] | < 100 nM
CCOc1cncc(-c2ccc(C(=O)NC3(c4cccc(NS(=O)(=O)C(F)F)c4)CC3)s2)n1 [I-269, N-(1-(3-((difluoromethyl)sulfonamido)phenyl)cyclopropyl)-5-(6-ethoxypyrazin-2-yl)thiophene-2-carboxamide] | < 100 nM
CCOc1cncc(-c2cnc(C(=O)N[C@H](CN3CCCC3)c3cc(NS(=O)(=O)C4CC4)ccn3)s2)n1 [I-199, (R)—N-(1-(4-(cyclopropanesulfonamido)pyridin-2-yl)-2-(pyrrolidin-1-yl)ethyl)-5-(6-ethoxypyrazin-2-yl)thiazole-2-carboxamide] | < 100 nM
CCOc1cncc(-c2ccc(NC(=O)C(NC(=O)CCOCCNC(=O)OC(C)(C)C)c3csc(NS(=O)(=O)C4CC4)n3)cc2)n1 (stereo not drawn) [Z-7, tert-butyl 2-(3-(1-(2-(cyclopropanesulfonamido)thiazol-4-yl)-2-(4-(6-ethoxypyrazin-2-yl)phenylamino)-2-oxoethylamino)-3-oxopropoxy)ethylcarbamate] | < 100 nM
CCOc1cncc(-c2cnc(C(=O)N[C@@H](CCN3CC[C@H](F)C3)c3cc(NS(=O)(=O)C4CC4)ccn3)s2)n1 [I-129, N—((S)-1-(4-(cyclopropanesulfonamido)pyridin-2-yl)-3-((S)-3-fluoropyrrolidin-1-yl)propyl)-5-(6-ethoxypyrazin-2-yl)thiazole-2-carboxamide] | < 100 nM
CCOc1cncc(-c2cnc(C(=O)N[C@@H](CCN3CC[C@@H](F)C3)c3cc(NS(=O)(=O)C4CC4)ccn3)s2)n1 [I-128, N—((S)-1-(4-(cyclopropanesulfonamido)pyridin-2-yl)-3-((R)-3-fluoropyrrolidin-1-yl)propyl)-5-(6-ethoxypyrazin-2-yl)thiazole-2-carboxamide] | < 100 nM
CCOc1cncc(-c2cnc(C(=O)N[C@@H](COC)c3cc(NS(=O)(=O)C4CC4)ccn3)s2)n1 [I-187] | < 100 nM
CCOc1cncc(-c2cnc(C(=O)N[C@H](CC3CCN(C)CC3)c3cc(NS(=O)(=O)C4CC4)ccn3)s2)n1 [I-100, (R)—N-(1-(4-(cyclopropanesulfonamido)pyridin-2-yl)-2-(1-methylpiperidin-4-yl)ethyl)-5-(6-ethoxypyrazin-2-yl)thiazole-2-carboxamide] | < 100 nM
CCOc1cncc(-c2cnc(C(=O)N[C@H](c3cc(NS(=O)(=O)C4CC4)ccn3)[C@H]3C[C@H](N(C)C)C3)s2)n1 (single isomer, unassigned) [I-106] | < 100 nM
CCOc1cncc(-c2cnc(C(=O)NC(CN3CCOCC3)c3cc(NS(=O)(=O)C4CC4)ccn3)s2)n1 (stereo not drawn) [I-245] | < 100 nM
